Test results reported in patent US20010018073A1, “Transdermal compositions with enhanced skin penetration properties” (JENAPHARM GMBH & CO., KG, priority 1997, published 2001).

Legend:
[1] = substance on its own versus ANP employed as accelerant; cited from earlier work
[2] = T2 relaxation times of destructuring and structuring agents in water; type: physicochemical; conditions: solute in water, concentration 0.5 mol/l

| Structure (SMILES) | permeation through the skin relative to ANP [1] [factor] | T2 relaxation time [2] [ms] |
| --- | --- | --- |
| O=[N+]([O-])O[C@H]1CO[C@H]2[C@@H]1OC[C@H]2O[N+](=O)[O-] [ISDN, isosorbide dinitrate] | 10 | – |
| OC[C@H]1O[C@@](CO)(O[C@H]2O[C@H](CO)[C@@H](O)[C@H](O)[C@H]2O)[C@@H](O)[C@@H]1O [Sucrose] | – | 18.7 |
| NC(N)=O [Urea] | – | 145 |
